Measurements from the kinase profiling compilation of Christmann-Franck et al. (2016).

Key:
ATR (human) = ATR (human) (UniProt Q13535); experiment: Alphascreen
MYLK2 (human) = MYLK2 (human) (UniProt Q9H1R3); experiment: SelectScreen, TR FRET; settings: compound 5.0 µM
RPS6KA3 KD1 KD2 (human) = RPS6KA3 KD1 KD2 (human) (UniProt P51812); experiment: SelectScreen, TR FRET; settings: compound 5.0 µM
PHKG2 (human) = PHKG2 (human) (UniProt P15735); experiment: SelectScreen, TR FRET; settings: compound 5.0 µM
MST4 (human) = MST4 (human) (UniProt Q9P289); experiment: SelectScreen, TR FRET; settings: compound 5.0 µM
EPHB4 (human) = EPHB4 (human) (UniProt P54760); experiment: SelectScreen, TR FRET; settings: compound 5.0 µM
EPHB4 (human), sequence (P54760 whole entry, looked up): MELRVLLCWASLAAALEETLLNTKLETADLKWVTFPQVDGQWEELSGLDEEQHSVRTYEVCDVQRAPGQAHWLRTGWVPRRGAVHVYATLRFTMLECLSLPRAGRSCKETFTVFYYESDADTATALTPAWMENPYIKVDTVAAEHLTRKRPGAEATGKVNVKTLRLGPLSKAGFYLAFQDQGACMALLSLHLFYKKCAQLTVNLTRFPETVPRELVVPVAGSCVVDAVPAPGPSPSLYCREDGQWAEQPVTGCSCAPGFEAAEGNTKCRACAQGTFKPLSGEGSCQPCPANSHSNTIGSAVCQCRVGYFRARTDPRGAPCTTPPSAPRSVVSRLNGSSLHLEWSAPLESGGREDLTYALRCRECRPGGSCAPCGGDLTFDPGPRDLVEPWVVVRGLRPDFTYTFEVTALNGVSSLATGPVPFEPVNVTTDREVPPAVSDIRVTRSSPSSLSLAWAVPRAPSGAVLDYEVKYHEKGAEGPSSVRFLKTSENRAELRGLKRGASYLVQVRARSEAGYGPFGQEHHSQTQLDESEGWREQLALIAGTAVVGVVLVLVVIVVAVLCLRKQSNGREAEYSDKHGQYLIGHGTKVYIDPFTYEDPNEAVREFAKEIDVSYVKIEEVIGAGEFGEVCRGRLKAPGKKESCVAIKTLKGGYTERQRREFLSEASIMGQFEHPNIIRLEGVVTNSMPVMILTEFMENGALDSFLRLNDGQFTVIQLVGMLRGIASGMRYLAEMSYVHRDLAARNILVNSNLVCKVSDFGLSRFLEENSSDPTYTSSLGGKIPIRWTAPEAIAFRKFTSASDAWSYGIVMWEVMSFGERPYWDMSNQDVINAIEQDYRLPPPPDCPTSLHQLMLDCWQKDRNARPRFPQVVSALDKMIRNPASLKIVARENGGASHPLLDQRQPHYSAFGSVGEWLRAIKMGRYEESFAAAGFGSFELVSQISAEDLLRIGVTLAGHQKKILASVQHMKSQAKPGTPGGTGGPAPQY

CHEK1 (human) = CHEK1 (human) (UniProt O14757); experiment: SelectScreen, TR FRET; settings: compound 5.0 µM
PRKCB2 (human) = PRKCB2 (human) (UniProt P05771); experiment: SelectScreen, TR FRET; settings: compound 5.0 µM
IRAK4 (human) = IRAK4 (human) (UniProt Q9NWZ3); experiment: SelectScreen, TR FRET; settings: compound 5.0 µM
RET (human) = RET (human) (UniProt P07949); experiment: SelectScreen, TR FRET; settings: compound 5.0 µM
CAMK4 (human) = CAMK4 (human) (UniProt Q16566); experiment: KINOMEscan competition binding; settings: compound 1.0 µM
CDK9 (human) = CDK9 (human) (UniProt P50750); experiment: KINOMEscan competition binding; settings: compound 1.0 µM
NLK (human) = NLK (human) (UniProt Q9UBE8); experiment: KINOMEscan competition binding; settings: compound 1.0 µM
CAMK2A (human) = CAMK2A (human) (UniProt Q9UQM7); experiment: KINOMEscan competition binding; settings: compound 1.0 µM
DCLK1 (human) = DCLK1 (human) (UniProt O15075); experiment: KINOMEscan competition binding; settings: compound 1.0 µM
[1] = tested on: EGFR (human), P00533 [L861Q]; experiment: KINOMEscan competition binding; settings: compound 1.0 µM
CDKL2 (human) = CDKL2 (human) (UniProt Q92772); experiment: KINOMEscan competition binding; settings: compound 1.0 µM
[2] = tested on: KIT (human), P10721 [V559D/V654A]; experiment: KINOMEscan competition binding; settings: compound 1.0 µM
KIT (human), P10721 [V559D/V654A], sequence (P10721 whole entry V559D/V654A, looked up): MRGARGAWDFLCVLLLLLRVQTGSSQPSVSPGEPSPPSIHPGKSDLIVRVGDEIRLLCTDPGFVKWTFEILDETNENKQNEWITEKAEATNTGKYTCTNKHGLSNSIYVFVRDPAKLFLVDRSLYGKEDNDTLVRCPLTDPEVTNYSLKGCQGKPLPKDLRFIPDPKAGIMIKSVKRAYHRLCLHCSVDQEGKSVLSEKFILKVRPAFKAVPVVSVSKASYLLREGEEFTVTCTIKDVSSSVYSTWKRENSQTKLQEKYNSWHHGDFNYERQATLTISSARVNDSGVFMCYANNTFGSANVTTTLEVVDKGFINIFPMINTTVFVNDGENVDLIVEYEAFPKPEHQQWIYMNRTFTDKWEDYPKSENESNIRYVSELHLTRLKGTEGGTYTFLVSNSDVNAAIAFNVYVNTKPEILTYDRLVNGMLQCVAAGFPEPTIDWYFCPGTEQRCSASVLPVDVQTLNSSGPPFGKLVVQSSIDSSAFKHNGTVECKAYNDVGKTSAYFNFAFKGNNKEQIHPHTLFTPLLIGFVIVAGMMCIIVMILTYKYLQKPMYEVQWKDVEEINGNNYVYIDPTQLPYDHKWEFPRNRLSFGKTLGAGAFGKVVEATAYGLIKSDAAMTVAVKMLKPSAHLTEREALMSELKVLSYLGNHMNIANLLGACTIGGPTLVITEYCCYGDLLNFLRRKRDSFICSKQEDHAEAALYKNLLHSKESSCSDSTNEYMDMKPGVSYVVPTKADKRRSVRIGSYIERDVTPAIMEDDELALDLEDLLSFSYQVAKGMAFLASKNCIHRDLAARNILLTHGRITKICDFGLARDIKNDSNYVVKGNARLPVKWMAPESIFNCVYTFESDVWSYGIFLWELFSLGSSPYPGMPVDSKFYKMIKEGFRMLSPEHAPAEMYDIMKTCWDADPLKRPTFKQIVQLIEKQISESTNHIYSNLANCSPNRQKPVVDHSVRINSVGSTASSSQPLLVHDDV

MAP4K1 (human) = MAP4K1 (human) (UniProt Q92918); experiment: KINOMEscan competition binding; settings: compound 1.0 µM
[3] = molecular target: JAK1 JH1 catalytic (human) (UniProt P23458); experiment: KINOMEscan competition binding; settings: compound 1.0 µM
ACVR2B (human) = ACVR2B (human) (UniProt Q13705); experiment: KINOMEscan competition binding; settings: compound 1.0 µM
ACVR2B (human), sequence (Q13705 whole entry, looked up): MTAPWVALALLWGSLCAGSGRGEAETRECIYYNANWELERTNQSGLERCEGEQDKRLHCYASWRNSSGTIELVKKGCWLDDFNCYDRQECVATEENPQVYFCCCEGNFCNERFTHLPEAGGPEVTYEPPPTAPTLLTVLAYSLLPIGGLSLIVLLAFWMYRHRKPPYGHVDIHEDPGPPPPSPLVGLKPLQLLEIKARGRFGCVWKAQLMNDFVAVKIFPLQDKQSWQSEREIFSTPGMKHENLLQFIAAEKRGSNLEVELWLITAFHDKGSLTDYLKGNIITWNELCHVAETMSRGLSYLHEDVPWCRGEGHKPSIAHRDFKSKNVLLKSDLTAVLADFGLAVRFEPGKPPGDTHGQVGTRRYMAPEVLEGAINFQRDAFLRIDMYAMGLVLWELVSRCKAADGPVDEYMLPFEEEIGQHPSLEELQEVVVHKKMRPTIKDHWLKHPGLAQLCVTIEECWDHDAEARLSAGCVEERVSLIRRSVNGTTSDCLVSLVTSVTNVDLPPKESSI

RIPK1 (human) = RIPK1 (human) (UniProt Q13546); experiment: KINOMEscan competition binding; settings: compound 1.0 µM
NEK1 (human) = NEK1 (human) (UniProt Q96PY6); experiment: KINOMEscan competition binding; settings: compound 1.0 µM
RPS6KA6 KD1 (human) = RPS6KA6 KD1 (human) (UniProt Q9UK32); experiment: KINOMEscan competition binding; settings: compound 1.0 µM
MARK2 (human) = MARK2 (human) (UniProt Q7KZI7); experiment: KINOMEscan competition binding; settings: compound 1.0 µM
MAPK9 (human) = MAPK9 (human) (UniProt P45984); experiment: KINOMEscan competition binding; settings: compound 1.0 µM
CDK7 (human) = CDK7 (human) (UniProt P50613); experiment: KINOMEscan competition binding; settings: compound 1.0 µM
CDK7 (human), sequence (P50613 whole entry, looked up): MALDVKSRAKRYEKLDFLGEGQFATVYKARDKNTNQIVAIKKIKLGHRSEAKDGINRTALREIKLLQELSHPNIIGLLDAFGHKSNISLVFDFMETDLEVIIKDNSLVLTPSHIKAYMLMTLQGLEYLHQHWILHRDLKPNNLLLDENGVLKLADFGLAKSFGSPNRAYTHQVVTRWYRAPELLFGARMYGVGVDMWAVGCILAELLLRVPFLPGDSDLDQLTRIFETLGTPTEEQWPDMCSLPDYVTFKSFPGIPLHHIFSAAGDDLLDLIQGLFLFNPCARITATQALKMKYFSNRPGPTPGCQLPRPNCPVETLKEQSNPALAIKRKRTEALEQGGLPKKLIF

[4] = molecular target: JAK1 JH2 pseudokinase (human) (UniProt P23458); experiment: KINOMEscan competition binding; settings: compound 1.0 µM
FGR (human) = FGR (human) (UniProt P09769); experiment: KINOMEscan competition binding; settings: compound 1.0 µM
DCLK2 (human) = DCLK2 (human) (UniProt Q8N568); experiment: KINOMEscan competition binding; settings: compound 1.0 µM
RPS6KA5 KD2 (human) = RPS6KA5 KD2 (human) (UniProt O75582); experiment: KINOMEscan competition binding; settings: compound 1.0 µM
PLK4 (human) = PLK4 (human) (UniProt O00444); experiment: KINOMEscan competition binding; settings: compound 1.0 µM
PIM2 (human) = PIM2 (human) (UniProt Q9P1W9); experiment: KINOMEscan competition binding; settings: compound 1.0 µM
CSNK1E (human) = CSNK1E (human) (UniProt P49674); experiment: KINOMEscan competition binding; settings: compound 1.0 µM
[5] = tested on: EGFR (human), P00533 [L858R]; experiment: KINOMEscan competition binding; settings: compound 1.0 µM
[6] = tested on: EIF2AK4 KD2 (human), Q9P2K8 [S808G]; experiment: KINOMEscan competition binding; settings: compound 1.0 µM
EIF2AK4 KD2 (human), Q9P2K8 [S808G], sequence (Q9P2K8 whole entry S808G, looked up): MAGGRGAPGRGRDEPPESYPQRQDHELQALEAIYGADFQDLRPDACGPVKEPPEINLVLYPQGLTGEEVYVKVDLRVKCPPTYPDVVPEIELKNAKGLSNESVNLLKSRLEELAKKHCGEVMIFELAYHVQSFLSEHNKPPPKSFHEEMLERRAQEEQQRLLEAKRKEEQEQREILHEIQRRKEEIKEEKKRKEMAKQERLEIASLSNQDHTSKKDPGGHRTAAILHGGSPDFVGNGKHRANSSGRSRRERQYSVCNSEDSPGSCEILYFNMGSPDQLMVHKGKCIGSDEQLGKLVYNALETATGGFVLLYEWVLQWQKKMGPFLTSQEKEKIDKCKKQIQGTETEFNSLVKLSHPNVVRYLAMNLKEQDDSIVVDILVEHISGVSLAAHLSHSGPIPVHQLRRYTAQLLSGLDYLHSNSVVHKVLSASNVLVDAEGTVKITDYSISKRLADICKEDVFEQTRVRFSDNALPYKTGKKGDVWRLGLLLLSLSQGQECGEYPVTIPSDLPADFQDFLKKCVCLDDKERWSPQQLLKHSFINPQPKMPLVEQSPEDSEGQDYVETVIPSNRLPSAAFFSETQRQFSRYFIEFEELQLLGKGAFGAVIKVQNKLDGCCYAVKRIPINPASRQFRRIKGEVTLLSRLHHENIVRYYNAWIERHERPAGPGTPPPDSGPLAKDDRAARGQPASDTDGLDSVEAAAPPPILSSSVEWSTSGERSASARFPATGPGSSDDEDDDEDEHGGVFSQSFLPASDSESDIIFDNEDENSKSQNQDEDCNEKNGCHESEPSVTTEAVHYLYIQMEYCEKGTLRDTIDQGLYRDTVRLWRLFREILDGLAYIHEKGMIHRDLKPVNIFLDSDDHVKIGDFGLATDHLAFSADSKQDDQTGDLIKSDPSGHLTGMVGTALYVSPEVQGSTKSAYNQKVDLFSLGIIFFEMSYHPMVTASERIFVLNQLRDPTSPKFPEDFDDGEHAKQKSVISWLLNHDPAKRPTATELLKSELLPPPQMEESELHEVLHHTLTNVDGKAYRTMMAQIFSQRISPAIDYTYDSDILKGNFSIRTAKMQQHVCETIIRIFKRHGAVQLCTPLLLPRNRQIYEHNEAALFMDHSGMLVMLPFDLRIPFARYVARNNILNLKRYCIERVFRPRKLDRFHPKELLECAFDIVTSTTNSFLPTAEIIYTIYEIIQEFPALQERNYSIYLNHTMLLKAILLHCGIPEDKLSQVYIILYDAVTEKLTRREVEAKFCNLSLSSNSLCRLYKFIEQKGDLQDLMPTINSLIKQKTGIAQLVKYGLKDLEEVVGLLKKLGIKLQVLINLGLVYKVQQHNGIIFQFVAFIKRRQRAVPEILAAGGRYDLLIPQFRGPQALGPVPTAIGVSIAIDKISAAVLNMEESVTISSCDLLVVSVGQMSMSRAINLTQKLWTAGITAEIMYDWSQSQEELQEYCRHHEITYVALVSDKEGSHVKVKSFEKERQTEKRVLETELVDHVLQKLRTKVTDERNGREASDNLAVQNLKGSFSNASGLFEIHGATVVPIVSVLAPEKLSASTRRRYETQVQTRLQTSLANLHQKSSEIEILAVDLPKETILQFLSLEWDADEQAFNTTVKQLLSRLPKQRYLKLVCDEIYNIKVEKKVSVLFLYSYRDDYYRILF

WEE2 (human) = WEE2 (human) (UniProt P0C1S8); experiment: KINOMEscan competition binding; settings: compound 1.0 µM
MATK (human) = MATK (human) (UniProt P42679); experiment: KINOMEscan competition binding; settings: compound 1.0 µM
MAPK14 (human) = MAPK14 (human) (UniProt Q16539); experiment: KINOMEscan competition binding; settings: compound 1.0 µM
PLK3 (human) = PLK3 (human) (UniProt Q9H4B4); experiment: KINOMEscan competition binding; settings: compound 1.0 µM

MYLK2 (human), sequence (Q9H1R3 whole entry, looked up): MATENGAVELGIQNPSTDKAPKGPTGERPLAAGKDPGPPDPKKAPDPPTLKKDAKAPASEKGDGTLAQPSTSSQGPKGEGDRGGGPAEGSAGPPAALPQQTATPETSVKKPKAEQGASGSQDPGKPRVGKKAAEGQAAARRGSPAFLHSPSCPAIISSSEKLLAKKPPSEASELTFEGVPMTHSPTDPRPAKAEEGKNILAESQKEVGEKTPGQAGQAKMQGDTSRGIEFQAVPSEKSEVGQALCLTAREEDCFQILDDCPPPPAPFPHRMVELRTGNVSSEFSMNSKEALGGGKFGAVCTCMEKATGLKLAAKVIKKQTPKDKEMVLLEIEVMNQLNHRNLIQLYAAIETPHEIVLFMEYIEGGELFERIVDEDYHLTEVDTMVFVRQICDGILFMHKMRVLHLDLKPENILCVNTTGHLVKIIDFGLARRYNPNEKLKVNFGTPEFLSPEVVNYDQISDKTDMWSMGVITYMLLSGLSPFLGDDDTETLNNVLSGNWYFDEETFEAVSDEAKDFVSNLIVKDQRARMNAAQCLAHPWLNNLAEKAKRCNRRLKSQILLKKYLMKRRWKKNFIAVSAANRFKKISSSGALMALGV

## Nc1cc(C(F)(F)F)c(-c2cc(N3CCOCC3)nc(N3CCOCC3)n2)cn1
ATR (human)
  IC50: 8.09 µM
MYLK2 (human)
  inhibition: 8%
RPS6KA3 KD1 KD2 (human)
  inhibition: 2%
PHKG2 (human)
  inhibition: 3%
MST4 (human)
  inhibition: -3%
EPHB4 (human)
  inhibition: -4%
CHEK1 (human)
  inhibition: 3%
PRKCB2 (human)
  inhibition: 8%
IRAK4 (human)
  inhibition: 12%
RET (human)
  inhibition: -4%
CAMK4 (human)
  inhibition of binding: 50%
CDK9 (human)
  inhibition of binding: 12%
NLK (human)
  inhibition of binding: 0%
CAMK2A (human)
  inhibition of binding: 2%
DCLK1 (human)
  inhibition of binding: 7%
[1]
  inhibition of binding: 0%
CDKL2 (human)
  inhibition of binding: 0%
[2]
  inhibition of binding: 0%
MAP4K1 (human)
  inhibition of binding: 0%
[3]
  inhibition of binding: 38%
ACVR2B (human)
  inhibition of binding: 0%
RIPK1 (human)
  inhibition of binding: 0%
NEK1 (human)
  inhibition of binding: 15%
RPS6KA6 KD1 (human)
  inhibition of binding: 0%
MARK2 (human)
  inhibition of binding: 0%
MAPK9 (human)
  inhibition of binding: 0%
CDK7 (human)
  inhibition of binding: 0%
[4]
  inhibition of binding: 0%
FGR (human)
  inhibition of binding: 0%
DCLK2 (human)
  inhibition of binding: 30%
RPS6KA5 KD2 (human)
  inhibition of binding: 50%
PLK4 (human)
  inhibition of binding: 1%
PIM2 (human)
  inhibition of binding: 0%
CSNK1E (human)
  inhibition of binding: 7%
[5]
  inhibition of binding: 16%
[6]
  inhibition of binding: 35%
WEE2 (human)
  inhibition of binding: 0%
MATK (human)
  inhibition of binding: 28%
MAPK14 (human)
  inhibition of binding: 0%
PLK3 (human)
  inhibition of binding: 0%
